Read-outs that look alike come from different tables or passages of the source.
How the values were obtained:
[1] = tested on: T. cruzi intracellular amastigotes in H9c2 cells; test: Rate-of-Kill (RoK) high-content imaging assay, amastigotes per cell (AM/CELL) and curve descriptors; type: cell-based, Trypanosoma cruzi; set-up: key to ME_24h / ME_48h / ME_72h: % reduction in parasite burden (cidal response); t50pct_MCC50 / t50pct_Cmax: unit not given here; details: for ME_24h: 24h; for ME_48h: 48h; for ME_72h: 72h; for AM/CELL NORM: sheet figure 4 A; for t50%_Cmax / tlag_Cmax / t50pct_Cmax: at Cmax; for ME_24h (%): maximum effect at 24 h; for ME_24h (%) / ME_48h (%) / ME_72h (%): RoK assay; for ME_48h (%): maximum effect at 48 h; for ME_72h (%): maximum effect at 72 h
In short: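 H9c2 cardiomyocytes infected with T. cruzi trypomastigotes (MOI 8, 18 h), then compounds tested at 5 μM single shot or 11-point 1/3 dilution from 50 μM. DRAQ5-stained nuclei imaged over a time course. Amastigotes per cell normalised to infected cells at 4 h (0%) and non-infected cells (100%).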

[2] = tested on: T. cruzi Tulahuen trypomastigotes; test: T. cruzi trypomastigote assay (Cell Titer-Glo viability, ATP luminescence); type: cell-based, Trypanosoma cruzi; details: for Trypomastigotes pIC50 48 hours: 48 hours incubation; for Trypomastigotes pIC50 48 hours / Trypomastigotes pIC50 72 hours: pIC50 = -log10 IC50 in molar units; for Trypomastigotes pIC50 72 hours: 72 hours incubation; for 72 pIC50 (trypomastigotes, raw data of Fig 1D): plotted values, censored values given without sign; for 48 pIC50 / 72 pIC50: trypomastigote assay; for IC50: Trypanosoma cruzi, TULAHUEN
In short: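 Tulahuen trypomastigotes from infected LLC-MK2 culture supernatants (days 5–8) plated at 5 × 10^4 per well in DMEM/2% FBS with compound at 5 μM single-shot final or in dose response. Viability by CellTiter-Glo ATP luminescence after 10 min at room temperature, normalised to no-cell (100%) and DMSO (0%) controls.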

TcCYP51 = details: formerly reported; cited from earlier work
[3] = maximum percentage of parasite burden reduction reached by any concentration, 24 hours

Row | SMILES | ME_24h ([1]; figure 5) | ME_48h ([1]; figure 5) | ME_72h ([1]; figure 5) | MCC50 ([1]; RoK curve descriptor) [µM] | MCCE ([1]; RoK curve descriptor) [µM] | AM/CELL NORM ([1]; Time 4) | AM/CELL NORM ([1]; Time 24) | AM/CELL NORM ([1]; Time 48) | AM/CELL NORM ([1]; Time 72) | tlag_Cmax [1] [h] | t50pct_Cmax ([1]; figure 5) | tlag_Cmax ([1]; figure 5) | t50%_MCC50 ([1]; at MCC50) [h] | tlag_MCC50 ([1]; at MCC50) [h] | t50pct_MCC50 ([1]; at MCC50, figure 5) | tlag_MCC50 ([1]; at MCC50, figure 5) | MCCE ([1]; figure 5) | ME_24h (%) [1] [%] | ME_48h (%) [1] [%] | ME_72h (%) [1] [%] | further results
1 | Cc1cc2cncn2c(C2CCCCN2C(=O)c2cccs2)n1 (stereo not drawn) [TCMDC-143500] | -103.212 | -13.304 | 53.284 | 16.7 | 0.2 | 8.792 | -103.212 | -13.304 | 50.5477 | 24.0 | 72 | 24 | 72.0 | 24.0 | 72 | 24 | 0.2058 | -103.2 | -13.3 | 53.3 | t50%_Cmax [1]: 72.0 h; MCC50 ([1]; figure 5, in µM): 16.6667; ME 24h (maximum effect at 24 hours, intracellular amastigotes) [1, 3]: -103.212%; Trypomastigotes pIC50 48 hours [2]: < 4.3; Trypomastigotes pIC50 72 hours [2]: < 4.3; 72 pIC50 (trypomastigotes, raw data of Fig 1D) ([2]; 72 hours): < 4.3; 48 pIC50 ([2]; 48 h, figure 1A): < 4.3; 72 pIC50 ([2]; 72 h, figure 1A): < 4.3; 72 pIC50 ([2]; 72 h, figure 1B): < 4.3; CYP51 pIC50 (TcCYP51): 7
2 | O=C1CSC(c2cccnc2)N1c1ccc(Cl)cc1Cl (stereo not drawn) [TCMDC-143114] | -4.949 | 48.1247 | 74.0117 | 50.0 | 0.6 | 4.621 | -4.949 | 48.1247 | 74.0117 | 24.0 | 72 | 24 | 72.0 | 24.0 | 72 | 24 | 0.6173 | -5.0 | 48.1 | 74.0 | t50%_Cmax [1]: 72.0 h; MCC50 ([1]; figure 5): 50 µM; ME 24h (maximum effect at 24 hours, intracellular amastigotes) [1, 3]: -4.949%; Trypomastigotes pIC50 48 hours [2]: < 4.3; Trypomastigotes pIC50 72 hours [2]: < 4.3; 72 pIC50 (trypomastigotes, raw data of Fig 1D) ([2]; 72 hours): < 4.3; 48 pIC50 ([2]; 48 h, figure 1A): < 4.3; 72 pIC50 ([2]; 72 h, figure 1A): < 4.3; 72 pIC50 ([2]; 72 h, figure 1B): < 4.3; CYP51 pIC50 (TcCYP51): 6.8
3 | O=C(CSc1ccc(-c2ccccn2)nn1)Nc1ccc(Cl)cc1 [TCMDC-143552] | -18.5463 | -23.0005 | 85.8726 | 16.7 | 5.6 | 7.37 | -202.586 | -606.539 | -482.613 | 48.0 | 72 | 48 | 72.0 | 48.0 | 72 | 48 | 5.556 | -18.6 | -23.0 | 85.9 | MCC50 ([1]; figure 5, in µM): 16.6667; ME 24h (maximum effect at 24 hours, intracellular amastigotes) [1, 3]: -18.5463%; Trypomastigotes pIC50 48 hours [2]: 5.4; Trypomastigotes pIC50 72 hours [2]: 5.5; CYP51 pIC50 (TcCYP51): < 4
4 | N#Cc1cc(N2CCCC2=O)ccc1Sc1ccccc1CO [TCMDC-143604] | -55.9743 | 36.5881 | 78.1794 | 1.9 | 0.6 | 9.146 | -84.052 | 29.3818 | 78.3167 | 24.0 | 72 | 24 | 72.0 | 24.0 | 72 | 24 | 0.6173 | -56.0 | 36.6 | 78.2 | t50%_Cmax [1]: 72.0 h; MCC50 ([1]; figure 5, in µM): 1.852; ME 24h (maximum effect at 24 hours, intracellular amastigotes) [1, 3]: -55.4036%; Trypomastigotes pIC50 48 hours [2]: < 4.3; Trypomastigotes pIC50 72 hours [2]: < 4.3; 72 pIC50 (trypomastigotes, raw data of Fig 1D) ([2]; 72 hours): < 4.3; 48 pIC50 ([2]; 48 h, figure 1A): < 4.3; 72 pIC50 ([2]; 72 h, figure 1A): < 4.3; 72 pIC50 ([2]; 72 h, figure 1B): < 4.3; CYP51 pIC50 (TcCYP51): 4.7
5 | O=c1[nH]cnc2c([C@@H]3O[C@H](CO)[C@@H](O)[C@H]3O)n[nH]c12 [TCMDC-143083, Formycin B] | 45.1391 | 64.8809 | 83.4402 | 3.7 | 0.6 | 22.2526 | 28.621 | 68.9466 | 69.7149 | 4.0 | 48 | 4 | 60.0 | 4.0 | 60 | 4 | 0.6173 | 45.1 | 64.9 | 83.4 | ME (maximum effect) in RoK assay (in words) [1]: ME positive for all times; cidality in the RoK assay (in words) [1]: cidal; Emax ([1]; Trypanosoma cruzi, H9c2, maximum percentage of parasite burden reduction reached by any concentration, 24 hours, read-out: ME 24h (maximum effect at 24 hours, intracellular amastigotes)): 48.3%; t50%_Cmax [1]: 48.0 h; MCC50 ([1]; figure 5, in µM): 3.7037; activity versus trypomastigotes at 48 hours (in words) ([2]; 48 hours): inactive; activity versus trypomastigotes at 72 hours (in words) ([2]; 72 hours): active; IC50 ([2]; 48 h, read-out: Trypomastigotes pIC50 48 hours (converted)): > 50100 nM; IC50 ([2]; 72 h, read-out: Trypomastigotes pIC50 72 hours (converted)): 2510 nM; CYP51 pIC50 (TcCYP51): < 4
6 | COc1ccccc1-c1c(C)[nH]c2nc(N)nc(C)c12 [TCMDC-143610] | 50.657 | 69.1206 | 72.4769 | 2.4 | 0.3 | 4.093 | 33.8882 | 64.2982 | 71.534 | 4.0 | 54 | 4 | 52.8 | 4.0 | 48 | 4 | 0.3086 | 44.7 | 65.4 | 70.3 | ME (maximum effect) in RoK assay (in words) [1]: high values in ME at the different times; tlag (in words) [1]: short tlag; t50%_Cmax [1]: 48.0 h; MCC50 ([1]; figure 5, in µM): 1.543; ME 24h (maximum effect at 24 hours, intracellular amastigotes) [1, 3]: 71.8108%; activity in trypomastigotes assay (in words) ([2]; 48 and 72 hours): active; Trypomastigotes pIC50 48 hours [2]: 6.4; Trypomastigotes pIC50 72 hours [2]: 6.5; CYP51 pIC50 (TcCYP51): 4.1

— article PMC8318231, “Rate-of-Kill (RoK) assays to triage large compound sets for Chagas disease drug discovery: Application to GSK Chagas Box” (PLoS Neglected Tropical Diseases, 2021)
